From patent US20140081017A1, “Histone Deacetylase Inhibitors for Enhancing Activity of Antifungal Agents” (METHYLGENE INC., priority 2012, published 2014)
In brackets after ≈: the same amount, converted by molar mass. Like-named read-outs stand apart in the source and are kept apart here.

Key:
C. glabrata = assay: Checkerboard FIC assay in combination with fluconazole (MIC alone and in combination, FICI); assay type: cell-based, Candida glabrata; conditions: for FICI of combination resulting in fluconazole MIC of: 2 ug/mL / FICI of combination resulting in fluconazole MIC of: 4 ug/mL / FICI of combination resulting in fluconazole MIC of: 8 ug/mL: FICI calculated using a fluconazole MIC of 16 μg/mL; for FICI of combination resulting in fluconazole MIC of: 2 ug/mL (value in parenthesis) / FICI of combination resulting in fluconazole MIC of: 4 ug/mL (value in parenthesis) / FICI of combination resulting in fluconazole MIC of: 8 ug/mL (value in parenthesis): FICI using a fluconazole MIC of 128 μg/mL; for MIC: Nakaseomyces glabratus; for Multiple of compound MIC to synergize fluconazole MIC to 2 ug/mL / Multiple of compound MIC to synergize fluconazole MIC to 4 ug/mL / Multiple of compound MIC to synergize fluconazole MIC to 8 ug/mL: concentration in combination as multiple of the compound's MIC alone; for Multiple of compound MIC to synergize fluconazole MIC to 2 ug/mL: fluconazole MIC 2 ug/mL; for Multiple of compound MIC to synergize fluconazole MIC to 4 ug/mL: fluconazole MIC 4 ug/mL; for Multiple of compound MIC to synergize fluconazole MIC to 8 ug/mL: fluconazole MIC 8 ug/mL; for Concentration of Methylgene compound to synergize fluconazole MIC to 2 ug/mL / Concentration of Methylgene compound to synergize fluconazole MIC to 4 ug/mL / Concentration of Methylgene compound to synergize fluconazole MIC to 8 ug/mL: in combination with fluconazole; for Concentration of Methylgene compound to synergize fluconazole MIC to 2 ug/mL: fluconazole MIC lowered to 2 ug/mL; for Concentration of Methylgene compound to synergize fluconazole MIC to 4 ug/mL: fluconazole MIC lowered to 4 ug/mL; for Concentration of Methylgene compound to synergize fluconazole MIC to 8 ug/mL: fluconazole MIC lowered to 8 ug/mL
Procedure: The ability of the compounds to synergize with azoles against C. glabrata was evaluated by the checkerboard assay, a common laboratory method used to evaluate synergy, antagonism, and indifference using fractional inhibitory concentrations (FICs) and FIC indices (FICI).
The test compounds were supplied as a powder and dissolved in dimethylsulfoxide (DMSO) on the day of assay. Stock solutions were prepared at 640 ug/mL. Fluconazole was dissolved in deionized water to a stock concentration of 320 ug/mL. All test articles were in solution under these conditions.
(§1) The test organisms and reference isolates were streaked for isolation on Sabouraud agar medium (yeasts) or potato dextrose agar (fungi). Colonies were picked by swab from the medium and resuspended in the appropriate broth containing cryoprotectant. The suspensions were aliquoted into cryogenic vials and maintained at −80° C.
(§2) Prior to testing, the yeast isolates were streaked from the frozen vials onto Sabouraud dextrose agar. The plates were incubated overnight at 35° C. The fungal isolate was grown on potato dextrose agar slants and was incubated for 7-10 days at room temperature.
(§3) Both yeast and fungal isolates were tested in RPMI medium buffered with 0.165 M MOPS (3-(N-morpholino)propanesulfonic acid). The pH of the medium was adjusted to 7.0 with 1 N NaOH. The medium was sterile filtered using a 0.2 um PES (polyethersulfone) filter and stored at 4° C. until used.
FIC values were determined using a broth microdilution method (CLSI; 1, 3). To prepare the test plates, automated liquid handlers (Multidrop 384, Labsystems, Helsinki, Finland; Biomek 2000 and Biomek FX, Beckman Coulter, Fullerton Calif.) were used to conduct serial dilutions and liquid transfers.
The wells of standard 96-well microdilution plates (Costar 3795) were filled with 150 uL of DMSO in columns 2-12. Three hundred microliters of each test compound was added to each well in Column 1 of the plates. The Biomek 2000 was used to make eleven 2-fold serial dilutions in each of these “test compound mother” plates. The wells of the “fluconazole mother plates” were filled with 150 uL of sterile water in rows B-H. Row A of these plates was filled with 300 uL of the fluconazole stock solution. Serial 2-fold dilutions were then prepared from top to bottom by hand, using a multichannel pipette in rows B-G. The “daughter plates” were loaded with 180 uL of RPMI using the Multidrop 384. The Biomek FX was used to transfer 5 uL of compound solution from each well of a fluconazole mother plate to the corresponding well in all of the daughter plates in a single step. Then the Biomek FX was used to transfer 5 uL of compound solution from each well of a test compound mother plate to the corresponding well of the corresponding test compound daughter plate (already containing fluconazole at the appropriate concentrations) in a single step. Row H and Column 12 each contained serial dilutions of the test agent and fluconazole alone, respectively, for determination of the MIC.
Standardized inoculum of each organism was prepared per CLSI methods (CLSI; 1, 3). For yeast isolates, colonies were picked from the primary plate and a suspension was prepared in 0.85% saline to equal a 0.5 McFarland turbidity standard. For the fungal isolate, 1 mL of 0.85% saline was dispensed onto a potato dextrose agar slant onto which the isolate had been inoculated 7-10 days previously. Using a swab, a suspension of the fungus was made. After a short time to allow the heavy particles to settle out, a small quantity of the supernatant was dispensed into 0.85% saline and the suspension was adjusted to equal a 0.5 McFarland turbidity standard. Both yeast and fungal isolates were diluted 1:100 in RPMI and then transferred to compartments of sterile reservoirs divided by length (Beckman Coulter). The Biomek 2000 was used to inoculate the plates. […]

Candida albicans = assay: Minimal Inhibitory Concentration (MIC) assay, broth microdilution per CLSI; assay type: cell-based; conditions: Candida albicans, read-out: Minimum Inhibitory Concentrations against Yeast Isolates, Candida albicans;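 further: two read times 24 hr and 48 hr of incubation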
Procedure: (§4) The in vitro activities of the inventive compounds (compound(s) herein) against fungi and/or yeasts were determined with isolates Candida albicans, Candida glabrata and Candida parapsilosis. The comparator compounds included fluconazole, caspofungin and amphotericin B.
(§5) The compounds were supplied as a powder, and were dissolved in dimethylsulfoxide (DMSO) the day of assay. Stock solutions were prepared at 10 mg/mL and diluted to a starting stock concentration of 2.56 mg/mL. Amphotericin B was dissolved in DMSO to a stock concentration of 2.56 mg/mL. Fluconazole was dissolved in deionized water to a stock concentration of 2.56 mg/mL. Caspofungin was received as a stock solution of 3.2 mg/mL in DMSO and was diluted to a starting stock concentration of 2.56 mg/mL.
as §1, §2, §3
(§6) The MIC assay method followed the procedure described by the Clinical and Laboratory Standards Institute (CLSI; 1, 2, 3) and employed automated liquid handlers to conduct serial dilutions and liquid transfers. Automated liquid handlers included the Multidrop 384 (Labsystems, Helsinki, Finland), Biomek 2000 and Biomek FX (Beckman Coulter, Fullerton Calif.). The wells in columns 2-12 in standard 96-well microdilution plates (Costar 3795) were filled with 150 ul of 100% DMSO. These would become the ‘mother plates’ from which ‘daughter’ or test plates would be prepared. The compounds (300 uL at 40× the desired top concentration in the test plates) were dispensed into the appropriate well in Column 1 of the mother plates. The Biomek 2000 was used to make serial 1:1 dilutions through Column 11 in the “mother plate”. The wells of Column 12 contained no compounds and were the organism growth control wells.
(§7) The daughter plates were loaded with 185 uL per well of RPMI described above using the Multidrop 384. The daughter plates were prepared using the Biomek FX which transferred 5 μL of the compound solution from each well of a mother plate to the corresponding well of the daughter plate in a single step.
(§8) Standardized inoculum of each organism was prepared per CLSI methods. For yeast isolates, colonies were picked from the streak plate and a suspension was prepared in 0.85% saline. For the fungal isolate, 1 mL of 0.85% saline was dispensed onto the potato dextrose agar slant that had been inoculated 7-10 days previously. Using a swab, a suspension of the fungus was made. After a short time to allow the heavy particles to settle out, a small quantity of the supernatant was dispensed into 0.85% saline and the suspension adjusted to equal a 0.5 McFarland turbidity standard. Both yeast and fungal isolates were diluted 1:100 in RPMI and then transferred to compartments of sterile reservoirs divided by length (Beckman Coulter). The Biomek 2000 was used to inoculate the plates. Daughter plates were placed on the Biomek 2000 work surface reversed so that inoculation took place from low to high compound concentration. The Biomek 2000 delivered 10 μL of standardized inoculum into each well. Thus, the wells of the daughter plates ultimately contained 185 uL of RPMI, 5 uL of the compound solution, and 10 uL of inoculum. […]

Candida parapsilosis = assay: as above; assay type: cell-based; conditions: Lodderomyces parapsilosis, read-out: Minimum Inhibitory Concentrations against Yeast Isolates, Candida parapsilosis;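 further: two read times 24 hr and 48 hr of incubation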
Procedure: as §4, §5, §1, §2, §3, §6, §7, §8

Candida glabrata = assay: as above; assay type: cell-based; conditions: Nakaseomyces glabratus, read-out: Minimum Inhibitory Concentrations against Yeast Isolates, Candida glabrata;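 further: two read times 24 hr and 48 hr of incubation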
Procedure: as §4, §5, §1, §2, §3, §6, §7, §8

[1] = MIC of the example compound alone against C. glabrata in the checkerboard assay, approximately 48 hr, read-out: Methylgene MIC
[2] = test compound alone, C. glabrata, approx. 48 hr at 35° C., read-out: Compound MIC
[3] = 24 hr reading (first value of cell 24 hr/48 hr)
[4] = 48 hr reading (second value of cell 24 hr/48 hr)

Structure (SMILES)	FICI of combination resulting in fluconazole MIC of: 2 ug/mL (C. glabrata; C. glabrata)	FICI of combination resulting in fluconazole MIC of: 4 ug/mL (C. glabrata; C. glabrata)	FICI of combination resulting in fluconazole MIC of: 8 ug/mL (C. glabrata; C. glabrata)	FICI of combination resulting in fluconazole MIC of: 2 ug/mL (value in parenthesis) (C. glabrata; C. glabrata)	FICI of combination resulting in fluconazole MIC of: 4 ug/mL (value in parenthesis) (C. glabrata; C. glabrata)	FICI of combination resulting in fluconazole MIC of: 8 ug/mL (value in parenthesis) (C. glabrata; C. glabrata)	MIC (C. glabrata; [1]) [µg/mL]	MIC (C. glabrata; [2]) [µg/mL]	Multiple of compound MIC to synergize fluconazole MIC to 2 ug/mL (C. glabrata)	Multiple of compound MIC to synergize fluconazole MIC to 4 ug/mL (C. glabrata)	Multiple of compound MIC to synergize fluconazole MIC to 8 ug/mL (C. glabrata)	Concentration of Methylgene compound to synergize fluconazole MIC to 2 ug/mL (C. glabrata; C. glabrata) [µg/mL]	Concentration of Methylgene compound to synergize fluconazole MIC to 4 ug/mL (C. glabrata; C. glabrata) [µg/mL]	Concentration of Methylgene compound to synergize fluconazole MIC to 8 ug/mL (C. glabrata; C. glabrata) [µg/mL]	MIC (Candida albicans; [3]) [µg/mL]	MIC (Candida albicans; [4]) [µg/mL]	MIC (Candida parapsilosis; [3]) [µg/mL]	MIC (Candida parapsilosis; [4]) [µg/mL]	MIC (Candida glabrata; [3]) [µg/mL]	MIC (Candida glabrata; [4]) [µg/mL]
O=C(Cc1ccc(CCCCc2ccc(F)cc2F)cc1)NO [Example 3, 2-(4-(4-(2,4-difluorophenyl)butyl)phenyl)-N-hydroxyacetamide]	0.563	0.625	0.490	0.516	0.531	0.303	0.5	0.5	(½x)	(½x)	(¼x)	0.25	0.25	0.12	0.5 (≈ 1.57 µM)	0.5 (≈ 1.57 µM)	0.25 (≈ 0.783 µM)	0.5 (≈ 1.57 µM)	0.5 (≈ 1.57 µM)	0.5 (≈ 1.57 µM)
Cc1ccc(CCCCc2ccc(CC(=O)NO)cc2)cc1 [Example 4, N-hydroxy-2-(4-(4-p-tolylbutyl)phenyl)acetamide]	1.063	0.605	0.490	1.016	0.511	0.303	0.25	0.25	(1x)	(½x)	(¼x)	0.25	0.12	0.06	0.25 (≈ 0.841 µM)	0.25 (≈ 0.841 µM)	0.12 (≈ 0.403 µM)	0.25 (≈ 0.841 µM)	0.25 (≈ 0.841 µM)	0.25 (≈ 0.841 µM)
O=C(Cc1ccc(CCCCc2ccc(-c3ccccc3)cc2)cc1)NO [Example 5, 2-(4-(4-(biphenyl-4-yl)butyl)phenyl)-N-hydroxyacetamide]	0.125	0.155	0.280	0.078	0.061	0.093	4	4	( 1/16x)	( 1/16x)	( 1/16x)	0.25	0.12	0.12	> 8	> 8	> 8	> 8	0.5 (≈ 1.39 µM)	8 (≈ 22.3 µM)
Cn1ccc2cc(CCCCc3ccc(CC(=O)NO)cc3)ccc21 [Example 6, N-hydroxy-2-(4-(4-(1-methyl-1H-indol-5-yl)butyl)phenyl) acetamide]	0.313	0.245	0.370	0.266	0.151	0.183	1	1	(¼x)	(⅛x)	(⅛x)	0.25	0.12	0.12	0.5 (≈ 1.49 µM)	0.5 (≈ 1.49 µM)	> 4	> 4	0.25 (≈ 0.743 µM)	0.5 (≈ 1.49 µM)
